Test results: patent publication US20150118306A1, “COMPOSITIONS COMPRISING SULFORAPHANE OR A SULFORAPHANE PRECURSOR AND A MILK THISTLE EXTRACT OR POWDER” (Nutramax Laboratories, Inc., priority 2012, published 2015)

What was measured:
myrosinase [1] = assay: Conversion of glucoraphanin to sulforaphane in simulated intestinal fluid (Example 5); type: biochemical, broccoli; settings: 38° C., ascorbic acid 0.25 to 1.00 mmol/Liter, 2 hours, FIG. 4
Protocol: Simulated Intestinal Fluid (SIF) powder, a commercially supplied concentrate closely approximating the human intestinal content in terms of composition, pH and ionic strength, was used. The experiment utilized a USP Dissolution Apparatus 2 (paddles), where into six dissolution vessels 500 mL of Simulated Intestinal Fluid was dispensed, along with 150 mg of freeze-dried broccoli sprout powder as a source of myrosinase. […] Aliquots were withdrawn every 15 minutes, and assayed for sulforaphane.

myrosinase [2] = assay: Equimolar conversion of glucoraphanin to sulforaphane by myrosinase, HPLC (Example 4); type: biochemical, broccoli
Protocol: A two-part experiment was conducted to further elucidate the role of ascorbic acid in modulating myrosinase activity. […] A control sample contained no ascorbic acid, and the enzymatic conversion proceeded unassisted by a co-factor. PART 1. […] PART 2. While keeping the amount of broccoli seed extract fixed at 250 mg, the concentration of ascorbic acid was varied from 0.4 mmol/Liter to 3.8 mmol/Liter.

[3] = system: NAD(P)H:quinine oxidoreductase (NQO1); settings: oral administration; mammary epithelium; Sprague-Dawley rats; cited from earlier work
heme oxygenase-1 (HO-1) = settings: oral administration; mammary epithelium; Sprague-Dawley rats; cited from earlier work
mammary tumors = settings: Sprague-Dawley rats; cited from earlier work
HepG2 cells = assay: Glutathione levels in HepG2 cell lysates, o-phthalaldehyde fluorescence (Example 6); type: cell-based, human; settings: alone or combined
Protocol: The following study was conducted to determine the effect of the combination of sulforaphane and silibinin on glutathione levels. Glutathione plays an important role in the body, as it can serve as an antioxidant, detoxifier, and immunity enhancer. Decreased levels of glutathione can cause a patient to be susceptible to oxidative stress, illness, and cancer. Therefore, an increase in glutathione levels is a beneficial effect.
In the study, the human liver cancer cell line, HepG2 cells were treated with DMSO (vehicle control), sulforaphane (SFN), silibinin (Silib), or the combination of sulforaphane and silibinin, for 24 hours. Cell lysates were collected and glutathione levels were measured using o-phthalaldehyde (OPT) as a fluorescent reagent. FIG. 5 and FIG. 6 show the results of the study.
In Part 1 of the study, the effect of 0.5 μM SFN was compared to various concentrations of silibinin and to the combination of 0.5 μM SFN and silibinin at various concentrations. […] An increase in glutathione levels is a beneficial effect. The results are depicted in FIG. 5.
In Part 2 of the study, the effect of 2 μM SFN was compared to various concentrations of silibinin and to the combination of 2 μM SFN and silibinin at various concentrations. […] An increase in glutathione levels is a beneficial effect to detoxify cells. The results are depicted in FIG. 6.

Structure (SMILES) | Yield of sulforaphane versus ascorbic acid concentration (myrosinase [1]) | Modulatory effect of increasing ascorbic acid concentration on myrosinase activity (myrosinase [2]; Part 2: 250 mg broccoli seed extract, ascorbic acid 0.4 to 3.8 mmol/Liter) | Increase in NQO1 enzymatic activity [3] | Elevated immunostaining of HO-1 enzyme (heme oxygenase-1 (HO-1)) | Stoichiometry of enzymatic conversion of glucoraphanin to sulforaphane (myrosinase [2]; control sample without ascorbic acid) | Formation of mammary tumors (mammary tumors) | Glutathione levels compared to DMSO (vehicle) control (HepG2 cells; Part 1, 24 hours: 0.5 μM SFN, 100, 200, 300 μM Silib, FIG. 5) | Glutathione levels compared to the control (HepG2 cells; Part 2, 24 hours: 2 μM SFN, 100, 300 μM Silib, FIG. 6)
O=C1O[C@H]([C@@H](O)CO)C(O)=C1O [Ascorbic Acid, ascorbic acid] | direct correlation between larger yield of sulforaphane and higher concentrations of ascorbic acid | linear, increase in myrosinase-promoted conversion of glucoraphanin to sulforaphane is observed to about 2 mmol/L | – | – | – | – | – | –
C[S+]([O-])CCCC/C(=N\OS(=O)(=O)O)S[C@@H]1O[C@H](CO)[C@@H](O)[C@H](O)[C@H]1O (stereo partly drawn) [glucoraphanin, 1-S-[(1E)-5-(methylsulfinyl)-N-(sulfonatooxy)pentanimidoyl]-1-thio-β-D-glucopyranose] | – | – | 3 fold | 4 fold | equimolar conversion of glucoraphanin to sulforaphane | – | – | –
C[S+]([O-])CCCCN=C=S (stereo not drawn) [sulforaphane, 1-isothiocyanato-4-methylsulfinylbutane] | – | – | – | 4 fold | – | effective in blocking the formation of mammary tumors | remained the same | remained the same
